This note sets out measurements from ChEMBL document CHEMBL2331430, “Absolute configuration and conformational analysis of brevipolides, bioactive 5,6-dihydro-α-pyrones from Hyptis brevipes” (J Nat Prod, 2013).

In one test the test system is PC-3. Nature of the test: Cytotoxicity against human PC3 cells after 72 hrs by SRB assay. The conditions noted are these: PC-3, 72 h, read-out: ED50 (the source's name).
The next test concerns HCT-15. Briefly: Cytotoxicity against human HCT15 cells after 72 hrs by SRB assay. The following applies: HCT-15, 72 h, read-out: ED50 (the source's name).
In the next test the test system is KB. Briefly: Cytotoxicity against human KB cells after 72 hrs by SRB assay.
Test [1] has as its system Hep-2 (human laryngeal carcinoma). Nature of the test: Cytotoxicity against human Hep-2 cells after 72 hrs by SRB assay. The following applies: Hep-2, 72 h, read-out: ED50 (the source's name).
A further test concerns HeLa. Nature of the test: Cytotoxicity against human HeLa cells after 72 hrs by SRB assay. The following applies: read-out: ED50 (the source's name).
For a further test, the system named is MCF7. Briefly: Cytotoxicity against human MCF7 cells after 72 hrs by SRB assay. The following applies: MCF7, 72 h, read-out: ED50 (the source's name).

SMILES strings stand for the structures. Values after ≈ are worked out from the molar mass of the structure shown.

As to `COc1ccc(/C=C/C(=O)O[C@@H](C)C(=O)[C@H]2C[C@@H]2[C@H](O)[C@H]2CC=CC(=O)O2)cc1O` [BREVIPOLIDE J], the EC50 (in the test with PC-3; in the test with HCT-15; in test [1]; with HeLa; in the test on MCF7) was 0.3 µg/mL (≈ 0.72 µM) each time. Besides, in the test on KB, the IC50 turned out to be 1.2 µg/mL (≈ 2.88 µM).
For the molecule `COc1ccc(/C=C/C(=O)O[C@@H](C)C(=O)[C@H]2C[C@@H]2[C@H](O)[C@H]2CC=CC(=O)O2)cc1` [BREVIPOLIDE H], the EC50 (with PC-3; in the test with HCT-15; in test [1]; in the test with HeLa; with MCF7) was 0.3 µg/mL (≈ 0.749 µM) throughout. This molecule also returned an IC50 in the test on KB of 2 µg/mL (≈ 4.99 µM).
In the case of `C[C@H](OC(=O)/C=C/c1ccc(O)cc1)C(=O)[C@H]1C[C@@H]1[C@H](O)[C@H]1CC=CC(=O)O1` [BREVIPOLIDE G], the EC50 (with PC-3; in the test on HCT-15; in test [1]; in the test with HeLa; with MCF7) was 0.3 µg/mL (≈ 0.776 µM) each time. In the test on KB, this molecule showed an IC50 of 0.3 µg/mL (≈ 0.776 µM).
As for `COc1ccc(/C=C\C(=O)O[C@@H](C)C(=O)[C@H]2C[C@@H]2[C@H](O)[C@H]2CC=CC(=O)O2)cc1` [BREVIPOLIDE I], the EC50 (in the test on PC-3; in the test with HCT-15; in test [1]; in the test with HeLa; with MCF7) was 0.3 µg/mL (≈ 0.749 µM) each time. In addition, in the test with KB, the half-maximal inhibitory concentration (IC50) was determined as 1.9 µg/mL (≈ 4.74 µM).
